Test results reported in patent US12097213B2, “Sequential treatment of cancers using 6-thio-dG, checkpoint inhibitors and radiation therapy” (The Board of Regents of the University of Texas System, priority 2020, dated 2024).

Legend:
[1] = system: HCT116 human colon cancer cells; assay: Cell viability assay (CellTiter 96), HCT116; format: cell-based; conditions: HCT-116, 120 h, cells treated for 5 days
Procedure: (§1) Cell viability assay. For determination of IC50 with cell proliferation assays, murine and human cancer cell lines were screened with 6-thio-dG with a 2-fold dilution series in 8 different points in 96-well plates. Cells were plated 24 hrs prior to the addition of drug, incubated for 4-5 days, and assayed using CellTiter 96® Aqueous One Solution Cell Proliferation Assay according to the manufacturer's instructions (Promega). Cell number per well ranged from 1,000 to 10,000 cells per well inversely proportional to doubling times. Dose response curves were generated and IC50s calculated using Graphpad Prism. All samples were analyzed in triplicate and standard deviations are from 2-3 independent experiments.

tumor-specific T cells = assay: IFN-γ ELISPOT of splenocytes / draining lymph node cells; format: in vivo, mouse; conditions: splenocytes re-stimulated with irradiated MC38 tumor cells 48 hrs; 3 mg/kg, days 7, 8, 9
Procedure: IFN-γ enzyme-linked immunosorbent spot assay (ELISPOT). MC38 tumors were injected subcutaneously on the right flank of C57BL/6. For 6-thio-dG single treatment, 3 mg/kg 6-thio-dG was intraperitoneally given on days 7, 8 and 9; for PD-L1 blockade combination therapy in MC38 model, 3 mg/kg 6-thio-dG was given on day 10 and day 11, 50 μg PD-L1 was intraperitoneally injected on day 11. 7 days after last treatment, tumor draining lymphoid and spleen from tumor-bearing mice were collected and single-cell suspension was prepared. Irradiated MC38 tumor cells and control LLC tumor cells were used to re-stimulate the tumor-specific T cells. 1.5×10^5 draining lymph nodes cells or splenocytes and 7.5×10^4 irradiated tumor cells were co-cultured for 48 hrs, and ELISPOT assay was performed using the IFN-γ ELISPOT kit (BD Bioscience) according to the manufacturer's instructions. IFN-γ spots were enumerated with the CTL-ImmunoSpot® S6 Analyzer (Cellular Technology Limited).

HCT116 tumor cells = assay: HCT116 tumor model in NSG-SGM3 and humanized NSG-SGM3 mice; format: in vivo, mouse; conditions: three doses, 3 mg/kg
Description: Humanized mouse tumor models. Humanized mouse reconstitution was previously described (Qiao et al., 2019). Briefly, four-week-old NSG-SGM3 female mice were irradiated with 100 cGy (X-ray irradiation with X-RAD 320 irradiator) one day prior to human CD34+ cells transfer. Cord blood was obtained from UT Southwestern Parkland Hospital. Human CD34+ cells were purified from cord blood by density gradient centrifugation (Ficoll® Paque Plus, GE healthcare) followed by positive immunomagnetic selection with anti-human CD34 microbeads (Stemcell). 1×10^5 CD34+ cells were intravenously injected into each recipient mouse. 12 weeks after engraftment, humanized mice with over 50% human CD45+ cells reconstitution and age and sex matched non-humanized mice were inoculated with 1×10^6 HCT116 tumor cells subcutaneously on the right flank. 3 mg/kg 6-thio-dG was intraperitoneally given on days 7, 8 and 9. Tumor volumes were measured twice a week. Experiments were performed in compliance with UTSW Human Investigation Committee protocol and UTSW Institutional Animal Care and Use Committee.

[2] = system: tumor infiltrating lymphocytes (TILs); assay: Flow cytometry of tumor infiltrating cells in MC38 tumor-bearing mice; format: in vivo, mouse
Procedure: Tumor digestion. Tumor tissues were excised and digested with 1 mg/mL Collagenase I (Sigma) and 0.5 mg/mL DNase I (Roche) in the 37° C. for 30 mins, tumor was then passed through a 70 μm cell strainer to remove large pieces of undigested tumor. Tumor infiltrating cells were washed twice with PBS containing 2 mM EDTA. Flow cytometry analysis. Single cell suspensions of cells were incubated with anti-FcγIII/II receptor (clone 2.4G2) for 15 minutes to block the non-specific binding before staining with the conjugated antibodies, and then incubated with indicated antibody for 30 mins at 4° C. in the dark. Fixable viability Dye eFlour 506 or eFlour780 (eBioscience) was used to exclude the dead cells. Foxp3 and Ki67 were stained intracellularly by using True-Nuclear transcription factor buffer set (BioLegend) following the manufacturer's instructions. Data were collected on CytoFLEX flow cytometer (Beckman Coulter, Inc) and analyzed by using FlowJo (Tree Star Inc., Ashland, OR) software.

[3] = system: LLC murine lung cancer cells; assay: Cell viability assay (CellTiter 96), LLC; format: cell-based, mouse; conditions: treated for 4 days
Procedure: as §1

[4] = system: CT26 murine colon cancer cells; assay: Cell viability assay (CellTiter 96), CT26; format: cell-based, mouse
Procedure: as §1

[5] = system: mouse BMDC co-cultured with HCT116; assay: Cytosolic DNA extraction and qPCR in DCs co-cultured with HCT116; format: cell-based; conditions: HCT116 pretreated with 500 nM 6-thio-dG; co-culture 4 hrs
Procedure: Cytosolic DNA extraction and quantitative real-time PCR. HCT 116 cells were pretreated with 500 nM 6-thio-dG for 4 hrs. Then drug was washed out, tumor cells were continued to culture for 72 hrs and harvest on the same day as BMDC harvest. Then HCT116 cells were mixed 1:1 with 1×10^6 BMDC for 4 hrs. BMDC was purified and divided into two equal aliquots.
One aliquot was extracted for total genomic DNA with Purelink Genomic DNA kit (Invitrogen) and served as normalization control. The other aliquot was resuspended in 100 μL cytosolic extract buffer containing 150 mM NaCl, 50 mM HEPES and […] digitonin (Sigma) and incubated for 10 mins at RT for plasma membrane permeabilization (West et al., 2015). Then cells were centrifuged to pellet intact cells. The cytosolic supernatants were collected and centrifuged at 12000 g for 10 mins to pellet the remaining cellular debris. Then cytosolic DNA was extracted with Purelink Genomic DNA kit (Invitrogen). Quantitative PCR was performed on both whole-cell extracts and cytosolic fractions using human DNA primers and mouse DNA primers (Xu et al., 2017).
Quantitative real-time PCR. […]

[6] = 6 days after the last of three daily doses, 3 mg/kg

In the case of Nc1nc2c(ncn2[C@H]2C[C@H](O)[C@@H](CO)O2)c(=S)[nH]1 [6-thio-dG, 6-thio-2′-deoxyguanosine], the IC50 [1] is reported as 730 nM, the “tumor-specific cytotoxic T cell responses (IFN-γ producing T cells)” value (tumor-specific T cells) is reported as “enhanced” and the tumor growth (HCT116 tumor cells; humanized NSG-SGM3 mice) is reported as “significantly delayed tumor growth”. The tumor growth (HCT116 tumor cells; immunocompromised NSG-SGM3 mice) was “did not have significant difference”, the “Treg cells (CD4+ Foxp3+)” value ([2]; 3 mg/kg, days 7, 8, 9) was “no significant changes” and the “tumor infiltrating NK cells” value ([2]; 3 mg/kg, days 7, 8, 9) was “increased”. For the same molecule, the “PD-1 expression on CD8+ T cells (frequency and per cell basis)” value ([2]; 3 mg/kg, days 7, 8, 9, 7 days after first treatment) was “upregulated”, the “CD8+ T cell proliferation (Ki67 expression)” value ([2]; 6 days after last treatment, 3 mg/kg) was “significant upregulation” and the “frequency of CD3+ T cells in TILs” value [2, 6] was “increase”. The “frequency of CD8+ T cells in TILs” value [2, 6] was “increase”, the “YFP+ T cells in the tumor” value ([2]; IFN-γ YFP reporter mice, eleven days after last treatment) was “significantly increased” and the “tumor-specific (OVA tetramer) CD8+ T cells in tumors” value ([2]; MC38-OVA tumor model, 6 days after 6-thio-dG treatment) was “increased”. The “cell viability in vitro” value [3] was “cell viability inhibition”, the “cell viability in vitro” value [4] was “cell viability inhibition” and the “human DNAs (MT-CO1 and human 18S) in the cytosol of mouse DCs” value [5] was “increase”.
